Assay results: patent publication US20240158391A1, “DERIVATIVES OF 4-(IMIDAZO[1,2-A]PYRIDIN-3-YL)-N-(PYRIDIN-3-YL) PYRIMIDIN-2- AMINE FOR TREATING PROLIFERATIVE DISEASES AND CONDITIONS” (AUCENTRA THERAPEUTICS PTY LTD, priority 2019, published 2024)

How the values were obtained:
[1] = molecular target: CDK7/CyclinH/Mat1 (Homo sapiens, UniProt P50613); experiment: ADP Glo kinase assay, CDK7/CyclinH/Mat1; format: biochemical; details: for remaining activity at 1 µM: compound at 1 μM, read-out: Residual enzymatic activity (%) at 1 μM, CDK7 H; for Ki: Km ATP, read-out: Enzymatic inhibition, Ki, CDK7 H
Outline: (§1)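 10-pt 1:3 dilution series, 10-0.0005 μM, 0.5% DMSO; RT reaction, optimised time; stopped with ADP Glo reagent.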

[2] = molecular target: CDK2/CyclinA2 (Homo sapiens, UniProt P24941); experiment: ADP Glo kinase assay, CDK2/CyclinA2; format: biochemical; details: for remaining activity at 1 µM: compound at 1 μM, read-out: Residual enzymatic activity (%) at 1 μM, CDK2 A; for Ki: Km ATP, read-out: Enzymatic inhibition, Ki, CDK2 A
Outline: as §1

[3] = molecular target: CDK4/CyclinD1 (Homo sapiens, UniProt P11802); experiment: ADP Glo kinase assay, CDK4/CyclinD1; format: biochemical; details: for remaining activity at 1 µM: compound at 1 μM, read-out: Residual enzymatic activity (%) at 1 μM, CDK4 D1; for Ki: Km ATP, read-out: Enzymatic inhibition, Ki, CDK4 D1
Outline: as §1

[4] = molecular target: T1, FLT3-ITD (Homo sapiens, UniProt P36888); experiment: ADP Glo kinase assay, FLT3-ITD; format: biochemical; details: Km ATP 100 μM, read-out: Enzymatic inhibition, Ki, FLT3-ITD
T1 sequence (P36888 1-993): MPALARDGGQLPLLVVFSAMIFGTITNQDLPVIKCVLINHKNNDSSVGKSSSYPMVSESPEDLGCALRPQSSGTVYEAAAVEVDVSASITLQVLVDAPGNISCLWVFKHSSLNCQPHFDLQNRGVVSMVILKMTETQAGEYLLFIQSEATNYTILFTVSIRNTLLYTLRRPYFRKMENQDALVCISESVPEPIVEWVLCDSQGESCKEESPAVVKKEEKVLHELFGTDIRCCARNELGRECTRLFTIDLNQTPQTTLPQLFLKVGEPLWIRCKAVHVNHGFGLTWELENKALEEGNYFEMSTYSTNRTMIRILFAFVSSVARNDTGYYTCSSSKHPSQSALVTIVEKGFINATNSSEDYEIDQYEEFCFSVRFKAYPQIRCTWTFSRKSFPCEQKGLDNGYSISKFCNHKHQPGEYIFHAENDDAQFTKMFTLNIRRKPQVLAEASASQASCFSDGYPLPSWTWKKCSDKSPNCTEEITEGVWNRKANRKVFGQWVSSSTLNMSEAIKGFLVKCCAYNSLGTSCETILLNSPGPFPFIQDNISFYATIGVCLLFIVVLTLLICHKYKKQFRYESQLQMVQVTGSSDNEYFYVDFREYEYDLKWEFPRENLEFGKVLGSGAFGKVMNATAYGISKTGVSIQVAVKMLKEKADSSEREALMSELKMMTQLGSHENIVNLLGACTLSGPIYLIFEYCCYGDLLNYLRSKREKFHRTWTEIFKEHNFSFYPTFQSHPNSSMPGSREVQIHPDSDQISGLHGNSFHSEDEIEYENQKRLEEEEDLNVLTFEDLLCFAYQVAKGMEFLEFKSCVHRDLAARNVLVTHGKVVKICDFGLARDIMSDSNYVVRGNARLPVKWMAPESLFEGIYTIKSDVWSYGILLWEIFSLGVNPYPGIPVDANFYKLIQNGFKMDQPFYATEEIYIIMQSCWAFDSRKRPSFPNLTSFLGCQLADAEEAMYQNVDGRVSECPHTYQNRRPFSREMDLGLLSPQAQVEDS
Outline: as §1

[5] = molecular target: CDK1/CyclinB (Homo sapiens, UniProt P06493); experiment: ADP Glo kinase assay, CDK1/CyclinB; format: biochemical; details: for remaining activity at 1 µM: compound at 1 μM, read-out: Residual enzymatic activity (%) at 1 μM, CDK1 B; for Ki: Km ATP, read-out: Enzymatic inhibition, Ki, CDK1 B
Outline: as §1

[6] = test system: MV-4-11; experiment: Proliferation assay (resazurin, leukemia cell lines), MV-4-11; format: cell-based; details: Homo sapiens, MV4-11, read-out: 72 h Growth inhibition GI50, MV-4-11 cells
Text: The following compounds were used as comparators.

[7] = molecular target: CDK6/CyclinD3 (Homo sapiens, UniProt Q00534); experiment: ADP Glo kinase assay, CDK6/CyclinD3; format: biochemical; details: for remaining activity at 1 µM: compound at 1 μM, read-out: Residual enzymatic activity (%) at 1 μM, CDK6 D3; for Ki: Km ATP, read-out: Enzymatic inhibition, Ki, CDK6 D3
Outline: as §1

[8] = molecular target: CDK9/CyclinT1 (Homo sapiens, UniProt P50750); experiment: ADP Glo kinase assay, CDK9/CyclinT1; format: biochemical; details: CDK9/CyclinT1; Km ATP; read-out: Enzymatic inhibition, Ki, CDK9 T1
Outline: as §1

CDK6/CyclinD3, sequence (Q00534 whole entry, species assumed): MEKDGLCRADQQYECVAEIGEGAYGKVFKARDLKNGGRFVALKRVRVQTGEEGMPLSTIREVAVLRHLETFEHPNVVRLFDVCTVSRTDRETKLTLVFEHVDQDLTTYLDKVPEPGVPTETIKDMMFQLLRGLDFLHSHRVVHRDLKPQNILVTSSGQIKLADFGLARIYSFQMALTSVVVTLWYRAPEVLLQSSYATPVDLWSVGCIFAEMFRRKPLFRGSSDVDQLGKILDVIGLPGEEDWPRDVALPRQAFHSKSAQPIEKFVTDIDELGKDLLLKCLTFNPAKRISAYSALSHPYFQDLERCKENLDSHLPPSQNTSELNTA
CDK6/CyclinD3, sequence (P30281 whole entry partner, species assumed): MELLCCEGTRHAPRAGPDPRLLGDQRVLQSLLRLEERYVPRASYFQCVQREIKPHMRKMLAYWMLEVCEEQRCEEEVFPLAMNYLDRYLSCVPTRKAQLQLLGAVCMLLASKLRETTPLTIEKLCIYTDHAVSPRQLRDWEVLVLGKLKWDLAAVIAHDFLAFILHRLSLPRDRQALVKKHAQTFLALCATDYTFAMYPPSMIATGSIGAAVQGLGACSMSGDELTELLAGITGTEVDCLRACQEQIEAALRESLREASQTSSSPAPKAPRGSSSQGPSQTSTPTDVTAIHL
CDK4/CyclinD1, sequence (P11802 whole entry, species assumed): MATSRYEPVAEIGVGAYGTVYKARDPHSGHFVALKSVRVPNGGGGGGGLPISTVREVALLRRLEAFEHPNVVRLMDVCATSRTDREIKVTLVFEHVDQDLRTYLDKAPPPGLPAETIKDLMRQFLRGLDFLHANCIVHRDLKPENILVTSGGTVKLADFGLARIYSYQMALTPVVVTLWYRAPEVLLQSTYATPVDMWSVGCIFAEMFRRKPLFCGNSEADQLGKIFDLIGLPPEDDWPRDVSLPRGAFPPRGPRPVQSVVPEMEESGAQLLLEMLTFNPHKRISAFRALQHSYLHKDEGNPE
CDK4/CyclinD1, sequence (P24385 whole entry partner, species assumed): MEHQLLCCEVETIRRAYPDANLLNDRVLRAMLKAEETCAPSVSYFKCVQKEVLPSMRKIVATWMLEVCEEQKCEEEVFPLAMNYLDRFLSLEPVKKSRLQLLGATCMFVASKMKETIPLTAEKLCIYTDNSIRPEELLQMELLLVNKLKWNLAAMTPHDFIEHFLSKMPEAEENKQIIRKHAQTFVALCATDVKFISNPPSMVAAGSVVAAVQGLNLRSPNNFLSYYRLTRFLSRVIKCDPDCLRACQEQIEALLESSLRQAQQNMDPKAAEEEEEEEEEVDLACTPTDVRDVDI
CDK1/CyclinB, sequence (P06493 whole entry, species assumed): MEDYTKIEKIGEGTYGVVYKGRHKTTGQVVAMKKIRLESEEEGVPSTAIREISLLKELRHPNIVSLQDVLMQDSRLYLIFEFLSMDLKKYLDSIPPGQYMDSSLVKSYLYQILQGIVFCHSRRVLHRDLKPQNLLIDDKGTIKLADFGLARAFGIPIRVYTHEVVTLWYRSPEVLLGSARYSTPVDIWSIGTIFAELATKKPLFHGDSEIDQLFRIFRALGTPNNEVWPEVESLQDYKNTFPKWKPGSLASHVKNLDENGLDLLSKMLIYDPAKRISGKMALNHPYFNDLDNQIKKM
CDK1/CyclinB, sequence (P14635 whole entry partner, species assumed): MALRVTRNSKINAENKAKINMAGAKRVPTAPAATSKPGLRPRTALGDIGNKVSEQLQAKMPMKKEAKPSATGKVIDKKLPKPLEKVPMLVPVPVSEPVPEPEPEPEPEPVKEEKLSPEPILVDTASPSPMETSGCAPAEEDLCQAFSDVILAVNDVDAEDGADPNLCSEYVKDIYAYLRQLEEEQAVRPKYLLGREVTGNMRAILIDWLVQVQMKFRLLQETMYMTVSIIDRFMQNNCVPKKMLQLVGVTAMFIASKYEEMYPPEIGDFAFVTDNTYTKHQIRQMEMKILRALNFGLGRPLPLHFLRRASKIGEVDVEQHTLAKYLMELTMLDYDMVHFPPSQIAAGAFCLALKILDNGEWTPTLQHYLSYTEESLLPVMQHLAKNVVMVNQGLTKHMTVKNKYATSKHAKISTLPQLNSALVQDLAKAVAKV
CDK9/CyclinT1, sequence (P50750 whole entry, species assumed): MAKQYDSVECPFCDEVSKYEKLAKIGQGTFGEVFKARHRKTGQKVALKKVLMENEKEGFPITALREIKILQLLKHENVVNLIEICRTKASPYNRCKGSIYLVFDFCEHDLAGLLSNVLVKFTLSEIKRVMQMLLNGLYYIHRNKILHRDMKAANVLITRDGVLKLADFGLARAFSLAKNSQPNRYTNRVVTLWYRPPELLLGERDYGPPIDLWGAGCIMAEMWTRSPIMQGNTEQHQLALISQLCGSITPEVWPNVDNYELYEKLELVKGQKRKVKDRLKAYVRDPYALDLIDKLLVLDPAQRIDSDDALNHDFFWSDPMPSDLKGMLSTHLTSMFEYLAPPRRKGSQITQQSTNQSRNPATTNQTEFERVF
CDK9/CyclinT1, sequence (O60563 whole entry partner, species assumed): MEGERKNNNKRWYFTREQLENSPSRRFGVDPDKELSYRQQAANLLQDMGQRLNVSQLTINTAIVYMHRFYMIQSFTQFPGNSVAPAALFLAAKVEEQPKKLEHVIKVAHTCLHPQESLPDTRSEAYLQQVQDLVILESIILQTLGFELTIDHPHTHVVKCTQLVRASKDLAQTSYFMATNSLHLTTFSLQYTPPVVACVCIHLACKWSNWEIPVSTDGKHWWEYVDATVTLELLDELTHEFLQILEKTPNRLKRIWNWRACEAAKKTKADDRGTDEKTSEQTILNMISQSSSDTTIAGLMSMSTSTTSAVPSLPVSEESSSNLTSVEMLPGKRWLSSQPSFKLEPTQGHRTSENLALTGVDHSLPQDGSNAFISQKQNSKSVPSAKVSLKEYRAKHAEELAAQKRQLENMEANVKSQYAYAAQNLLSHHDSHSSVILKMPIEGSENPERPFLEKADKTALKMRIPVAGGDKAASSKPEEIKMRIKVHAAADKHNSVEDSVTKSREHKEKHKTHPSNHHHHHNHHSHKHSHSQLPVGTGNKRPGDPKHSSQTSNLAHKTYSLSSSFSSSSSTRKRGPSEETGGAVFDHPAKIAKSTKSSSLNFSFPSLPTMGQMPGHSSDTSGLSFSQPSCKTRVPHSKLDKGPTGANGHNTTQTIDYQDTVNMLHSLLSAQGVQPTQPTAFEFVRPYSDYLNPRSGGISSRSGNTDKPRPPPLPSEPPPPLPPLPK
CDK7/CyclinH/Mat1, sequence (P50613 whole entry, species assumed): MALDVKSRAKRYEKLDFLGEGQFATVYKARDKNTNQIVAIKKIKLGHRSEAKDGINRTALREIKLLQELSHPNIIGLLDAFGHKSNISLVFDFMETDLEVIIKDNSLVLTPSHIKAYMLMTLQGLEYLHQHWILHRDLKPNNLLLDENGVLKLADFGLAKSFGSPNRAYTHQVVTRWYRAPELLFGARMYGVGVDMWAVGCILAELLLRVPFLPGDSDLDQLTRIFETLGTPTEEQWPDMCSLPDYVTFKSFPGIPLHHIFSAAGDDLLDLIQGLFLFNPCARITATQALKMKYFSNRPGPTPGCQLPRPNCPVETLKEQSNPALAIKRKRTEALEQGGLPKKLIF
CDK7/CyclinH/Mat1, sequence (P51946 whole entry partner, species assumed): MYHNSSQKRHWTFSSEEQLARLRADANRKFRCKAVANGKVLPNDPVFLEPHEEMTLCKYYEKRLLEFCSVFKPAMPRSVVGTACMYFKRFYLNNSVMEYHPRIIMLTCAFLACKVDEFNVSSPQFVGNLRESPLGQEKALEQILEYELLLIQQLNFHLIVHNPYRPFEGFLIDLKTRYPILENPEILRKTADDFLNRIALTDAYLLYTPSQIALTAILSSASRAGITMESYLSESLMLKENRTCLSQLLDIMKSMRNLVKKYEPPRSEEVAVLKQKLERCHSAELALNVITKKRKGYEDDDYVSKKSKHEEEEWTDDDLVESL
CDK7/CyclinH/Mat1, sequence (P51948 whole entry partner, species assumed): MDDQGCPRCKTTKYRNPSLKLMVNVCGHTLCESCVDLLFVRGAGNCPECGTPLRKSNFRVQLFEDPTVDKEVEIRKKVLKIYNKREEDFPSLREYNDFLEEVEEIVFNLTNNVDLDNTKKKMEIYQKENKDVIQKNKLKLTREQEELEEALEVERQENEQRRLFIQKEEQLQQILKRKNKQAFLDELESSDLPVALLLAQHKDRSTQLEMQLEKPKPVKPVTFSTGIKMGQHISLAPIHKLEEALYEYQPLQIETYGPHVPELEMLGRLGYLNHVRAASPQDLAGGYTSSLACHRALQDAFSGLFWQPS

remaining activity at 1 µM [1] [%]	remaining activity at 1 µM [2] [%]	remaining activity at 1 µM [3] [%]	Ki [4] [nM]	remaining activity at 1 µM [5] [%]	GI50 [6] [nM]	remaining activity at 1 µM [7] [%]	Ki [8] [nM]	Ki [1] [nM]	Ki [2] [nM]	Ki [3] [nM]	Ki [5] [nM]	Ki [7] [nM]	Compound
83	80	82	116	73	14	97	> 500						O=C1NCCC12CCN(c1ccc(Nc3nccc(-c4cnc5ccc(-c6cnn(C(F)F)c6)cn45)n3)cn1)CC2 [Compound 73, 8-(5-((4-(6-(1-(Difluoromethyl)-1H-pyrazol-4-yl)imidazo[1,2-a]pyridin-3-yl)pyrimidin-2-yl)amino)pyridin-2-yl)-2,8-diazaspiro[4.5]decan-1-one]
77	22	53	32	31	27	70	91						CC(=O)N1CCN(c2ccc(Nc3nccc(-c4cnc5ccccn45)n3)cn2)CC1 [Compound 41, 1-(4-(5-((4-(Imidazo[1,2-a]pyridin-3-yl)pyrimidin-2-yl)amino)pyridin-2-yl)piperazin-1-yl)ethan-1-one]
80	85	96	> 500	77	17	43	286						CS(=O)(=O)N1CCN(c2ccc(Nc3nccc(-c4cnc5ccc(-c6ccco6)cn45)n3)cn2)CC1 [Compound 51, 4-(6-(Furan-2-yl)imidazo[1,2-a]pyridin-3-yl)-N-(6-(4-(methylsulfonyl)piperazin-1-yl)pyridin-3-yl)pyrimidin-2-amine]
57	62	97	100	96	39	71	629						CCCNc1ccc(Nc2nccc(-c3cnc4ccc(-c5cnn(C(F)F)c5)cn34)n2)cn1 [Compound 76, N^5-(4-(6-(1-(Difluoromethyl)-1H-pyrazol-4-yl)imidazo[1,2-a]pyridin-3-yl)pyrimidin-2-yl)-N^2-propylpyridine-2,5-diamine]
			26		24		14	174	72	154	151	215	CC(C)N1CCN(c2ccc(Nc3nccc(-c4cnc5ccc(Cl)cn45)n3)cn2)CC1 [Compound 37, 4-(6-Chloroimidazo[1,2-a]pyridin-3-yl)-N-(6-(4-isopropylpiperazin-1-yl)pyridin-3-yl)pyrimidin-2-amine]
40		52	70	74	35	48	51		40				CN1CCN(Cc2ccc(Nc3nccc(-c4cnc5ccc(Br)cn45)n3)cn2)CC1 [Compound 77, 4-(6-Bromoimidazo[1,2-a]pyridin-3-yl)-N-(6-((4-methylpiperazin-1-yl)methyl)pyridin-3-yl)pyrimidin-2-amine]
	37	97	109	84	196	61	> 5000	> 5000					c1ccc(-c2ccc3ncc(-c4ccnc(Nc5ccc(N6CCCC6)nc5)n4)n3c2)cc1 [Compound 27, 4-(6-Phenylimidazo[1,2-a]pyridin-3-yl)-N-(6-(pyrrolidin-1-yl)pyridin-3-yl)pyrimidin-2-amine]
			79		7		5	2360	98	712	317	716	CN1CCN(c2ccc(Nc3nccc(-c4cnc5ccc(Br)cn45)n3)cn2)CC1 [Compound 5, 4-(6-Bromoimidazo[1,2-a]pyridin-3-yl)-N-(6-(4-methylpiperazin-1-yl)pyridin-3-yl)pyrimidin-2-amine]
77	28	84	137	56	21	55	719						CC(=O)N1CCN(c2ccc(Nc3nccc(-c4cnc5ccc(Br)cn45)n3)cn2)CC1 [Compound 44, 1-(4-(5-((4-(6-Bromoimidazo[1,2-a]pyridin-3-yl)pyrimidin-2-yl)amino)pyridin-2-yl)piperazin-1-yl)ethan-1-one]
			15		20		234	1630	3	543	10	1000	Fc1cnc(Nc2ccc(N3CCOCC3)nc2)nc1-c1cnc2ccccn12 [Compound 15, 5-Fluoro-4-(imidazo[1,2-a]pyridin-3-yl)-N-(6-morpholinopyridin-3-yl)pyrimidin-2-amine]
41	46	68	24	67	40	46	66						COc1ccc(-c2ccc3ncc(-c4ccnc(Nc5ccc(N6CCN(C)CC6)nc5)n4)n3c2)cn1 [Compound 43, 4-(6-(6-Methoxypyridin-3-yl)imidazo[1,2-a]pyridin-3-yl)-N-(6-(4-methylpiperazin-1-yl)pyridin-3-yl)pyrimidin-2-amine]
	25	98	257	69	337	61	> 5000	> 5000					COC(=O)N1CCC(c2ccc(Nc3ncc(F)c(-c4cnc5ccc(-c6ccccc6)cn45)n3)cn2)CC1 [Compound 29, Methyl 4-(5-((5-fluoro-4-(6-phenylimidazo[1,2-a]pyridin-3-yl)pyrimidin-2-yl)amino)pyridin-2-yl)piperidine-1-carboxylate]
100	89	91	> 1000	96	620	44	> 1000						O=C(c1ccc(Nc2ncc(F)c(-c3cnc4ccc(-c5ccccc5)cn34)n2)cn1)N1CCCCC1 [Compound 32, (5-((5-Fluoro-4-(6-phenylimidazo[1,2-a]pyridin-3-yl)pyrimidin-2-yl)amino)pyridin-2-yl) (piperidin-1-yl)methanone]
32		57	11	41	47	52	12		344				CC(C)N1CCN(c2ccc(Nc3nccc(-c4cnc5ccc(-c6ccncc6)cn45)n3)cn2)CC1 [Compound 40, N-(6-(4-Isopropylpiperazin-1-yl)pyridin-3-yl)-4-(6-(pyridin-4-yl)imidazo[1,2-a]pyridin-3-yl)pyrimidin-2-amine]
